# According to ChEMBL document CHEMBL4680217, “Discovery of PROTAC BCL-X degraders as potent anticancer agents with low on-target platelet toxicity” (Eur J Med Chem, 2020):
# Calls of active or inactive are those of the source. No cut-off for these calls is given here.
# Columns and labels:
# [1] = biological target: Protein cereblon/Apoptosis regulator Bcl-2 (Homo sapiens) (UniProt P10415+Q96SW2); experiment: Protac activity at CRBN/BCL2 in human MOLT-4 cells assessed as induction of BCL2 degradation at 50 nM measured after 16 hrs by immunoblotting analysis; format: cell-based
# Sequence of Protein cereblon/Apoptosis regulator Bcl-2 (Homo sapiens) (P10415 whole entry, looked up): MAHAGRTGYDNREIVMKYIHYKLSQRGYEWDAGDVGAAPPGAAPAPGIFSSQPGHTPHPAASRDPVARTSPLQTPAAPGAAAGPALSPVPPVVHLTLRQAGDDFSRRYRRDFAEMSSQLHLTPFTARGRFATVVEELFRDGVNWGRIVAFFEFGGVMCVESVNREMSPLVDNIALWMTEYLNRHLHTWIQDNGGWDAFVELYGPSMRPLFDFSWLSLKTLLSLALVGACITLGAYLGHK
# Sequence of Protein cereblon/Apoptosis regulator Bcl-2 (Homo sapiens) (Q96SW2 whole entry, looked up): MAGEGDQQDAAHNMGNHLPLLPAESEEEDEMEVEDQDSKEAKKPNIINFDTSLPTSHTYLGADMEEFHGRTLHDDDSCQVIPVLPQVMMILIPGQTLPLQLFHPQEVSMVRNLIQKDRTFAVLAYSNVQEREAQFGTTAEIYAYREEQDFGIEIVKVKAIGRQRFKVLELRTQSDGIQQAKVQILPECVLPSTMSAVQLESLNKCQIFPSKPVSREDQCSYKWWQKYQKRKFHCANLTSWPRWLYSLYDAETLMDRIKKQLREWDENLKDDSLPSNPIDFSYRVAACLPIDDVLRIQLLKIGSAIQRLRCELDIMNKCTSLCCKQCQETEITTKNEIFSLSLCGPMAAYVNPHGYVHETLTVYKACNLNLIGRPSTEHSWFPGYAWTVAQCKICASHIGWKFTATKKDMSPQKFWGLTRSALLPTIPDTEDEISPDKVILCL
# MOLT-4 = experiment: Antiproliferative activity against human MOLT-4 cells assessed as reduction in cell viability measured after 48 hrs by MTS assay; format: functional, cell-based; conditions: MOLT-4, 48 h
# [2] = biological target: Protein cereblon/Bcl-2-like protein 1 (Homo sapiens, UniProt Q07817+Q96SW2); experiment: Protac activity at CRBN/BCL-XL in human MOLT-4 cells assessed as induction of BCL-XL degradation by measuring remaining BCL-XL level at 50 nM measured after 16 hrs by immunoblotting analysis relative to control; format: cell-based
# Sequence of Protein cereblon/Bcl-2-like protein 1 (Q07817 whole entry, looked up): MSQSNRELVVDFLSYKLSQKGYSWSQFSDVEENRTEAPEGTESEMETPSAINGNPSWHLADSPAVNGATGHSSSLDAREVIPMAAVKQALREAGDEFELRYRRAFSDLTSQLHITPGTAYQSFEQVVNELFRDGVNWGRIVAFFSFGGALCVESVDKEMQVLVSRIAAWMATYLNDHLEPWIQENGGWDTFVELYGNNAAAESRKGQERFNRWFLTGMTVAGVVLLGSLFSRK
# Sequence of Protein cereblon/Bcl-2-like protein 1 (Q96SW2 whole entry, looked up): as the sequence (Q96SW2 whole entry, looked up) above
Structure (SMILES),Activity [1],IC50 (MOLT-4) [nM],Activity [2] [%]
CN(CC[C@H](CSc1ccccc1)Nc1ccc(S(=O)(=O)NC(=O)c2ccc(N3CCN(CC4=C(c5ccc(Cl)cc5)CCC(C)(C)C4)CC3)cc2)cc1S(=O)(=O)C(F)(F)F)C(=O)CCCCCCn1cc(COCCOCCOCCNc2cccc3c2C(=O)N([C@@H]2CCC(=O)NC2=O)C3=O)nn1,inactive,179,29
CC1(C)CCC(c2ccc(Cl)cc2)=C(CN2CCN(c3ccc(C(=O)NS(=O)(=O)c4ccc(N[C@H](CCN5CCN(C(=O)CCCCCCCNc6cccc7c6C(=O)N([C@@H]6CCC(=O)NC6=O)C7=O)CC5)CSc5ccccc5)c(S(=O)(=O)C(F)(F)F)c4)cc3)CC2)C1,inactive,> 2000,89
CN(CC[C@H](CSc1ccccc1)Nc1ccc(S(=O)(=O)NC(=O)c2ccc(N3CCN(CC4=C(c5ccc(Cl)cc5)CCC(C)(C)C4)CC3)cc2)cc1S(=O)(=O)C(F)(F)F)C(=O)CCCn1cc(COCCOCCNc2cccc3c2C(=O)N([C@@H]2CCC(=O)NC2=O)C3=O)nn1,inactive,770,66
CC1(C)CCC(c2ccc(Cl)cc2)=C(CN2CCN(c3ccc(C(=O)NS(=O)(=O)c4ccc(N[C@H](CCN5CCN(C(=O)CCCCCNc6cccc7c6C(=O)N([C@@H]6CCC(=O)NC6=O)C7=O)CC5)CSc5ccccc5)c(S(=O)(=O)C(F)(F)F)c4)cc3)CC2)C1,inactive,518,63
CC1(C)CCC(c2ccc(Cl)cc2)=C(CN2CCN(c3ccc(C(=O)NS(=O)(=O)c4ccc(N[C@H](CCN5CCN(C(=O)COCCOCCOCCOCCNc6cccc7c6C(=O)N([C@@H]6CCC(=O)NC6=O)C7=O)CC5)CSc5ccccc5)c(S(=O)(=O)C(F)(F)F)c4)cc3)CC2)C1,inactive,126,11
CC1(C)CCC(c2ccc(Cl)cc2)=C(CN2CCN(c3ccc(C(=O)NS(=O)(=O)c4ccc(N[C@H](CCN5CCN(C(=O)CCCCCCNc6cccc7c6C(=O)N([C@@H]6CCC(=O)NC6=O)C7=O)CC5)CSc5ccccc5)c(S(=O)(=O)C(F)(F)F)c4)cc3)CC2)C1,inactive,> 2000,101
CN(CCCCCCCCNc1cccc2c1C(=O)N([C@@H]1CCC(=O)NC1=O)C2=O)CC[C@H](CSc1ccccc1)Nc1ccc(S(=O)(=O)NC(=O)c2ccc(N3CCN(CC4=C(c5ccc(Cl)cc5)CCC(C)(C)C4)CC3)cc2)cc1S(=O)(=O)C(F)(F)F,inactive,> 2000,94
CC1(C)CCC(c2ccc(Cl)cc2)=C(CN2CCN(c3ccc(C(=O)NS(=O)(=O)c4ccc(N[C@H](CCN5CCN(C(=O)CCCNc6cccc7c6C(=O)N([C@@H]6CCC(=O)NC6=O)C7=O)CC5)CSc5ccccc5)c(S(=O)(=O)C(F)(F)F)c4)cc3)CC2)C1,inactive,,44
CN(CCCCCCCn1cc(COCCOCCOCCNc2cccc3c2C(=O)N([C@@H]2CCC(=O)NC2=O)C3=O)nn1)CC[C@H](CSc1ccccc1)Nc1ccc(S(=O)(=O)NC(=O)c2ccc(N3CCN(CC4=C(c5ccc(Cl)cc5)CCC(C)(C)C4)CC3)cc2)cc1S(=O)(=O)C(F)(F)F,inactive,,24
CN(CCCCCNc1cccc2c1C(=O)N([C@@H]1CCC(=O)NC1=O)C2=O)CC[C@H](CSc1ccccc1)Nc1ccc(S(=O)(=O)NC(=O)c2ccc(N3CCN(CC4=C(c5ccc(Cl)cc5)CCC(C)(C)C4)CC3)cc2)cc1S(=O)(=O)C(F)(F)F,inactive,60.9,47
CC1(C)CCC(c2ccc(Cl)cc2)=C(CN2CCN(c3ccc(C(=O)NS(=O)(=O)c4ccc(N[C@H](CCN5CCN(C(=O)COCCOCCNc6cccc7c6C(=O)N([C@@H]6CCC(=O)NC6=O)C7=O)CC5)CSc5ccccc5)c(S(=O)(=O)C(F)(F)F)c4)cc3)CC2)C1,inactive,161,20
CC1(C)CCC(c2ccc(Cl)cc2)=C(CN2CCN(c3ccc(C(=O)NS(=O)(=O)c4ccc(N[C@H](CCN5CCN(C(=O)CCCCNc6cccc7c6C(=O)N([C@@H]6CCC(=O)NC6=O)C7=O)CC5)CSc5ccccc5)c(S(=O)(=O)C(F)(F)F)c4)cc3)CC2)C1,inactive,346,81
CC1(C)CCC(c2ccc(Cl)cc2)=C(CN2CCN(c3ccc(C(=O)NS(=O)(=O)c4ccc(N[C@H](CCN5CCN(C(=S)NCCOCCOCCNc6cccc7c6C(=O)N([C@@H]6CCC(=O)NC6=O)C7=O)CC5)CSc5ccccc5)c(S(=O)(=O)C(F)(F)F)c4)cc3)CC2)C1 (racemic),inactive,722,76
CC1(C)CCC(c2ccc(Cl)cc2)=C(CN2CCN(c3ccc(C(=O)NS(=O)(=O)c4ccc(N[C@H](CCN5CCN(CCOCCOCCNc6cccc7c6C(=O)N([C@@H]6CCC(=O)NC6=O)C7=O)CC5)CSc5ccccc5)c(S(=O)(=O)C(F)(F)F)c4)cc3)CC2)C1,inactive,41.4,13
CC1(C)CCC(c2ccc(Cl)cc2)=C(CN2CCN(c3ccc(C(=O)NS(=O)(=O)c4ccc(N[C@H](CCN5CCN(CCCCNc6cccc7c6C(=O)N([C@@H]6CCC(=O)NC6=O)C7=O)CC5)CSc5ccccc5)c(S(=O)(=O)C(F)(F)F)c4)cc3)CC2)C1,inactive,43,20
CN(CC[C@H](CSc1ccccc1)Nc1ccc(S(=O)(=O)NC(=O)c2ccc(N3CCN(CC4=C(c5ccc(Cl)cc5)CCC(C)(C)C4)CC3)cc2)cc1S(=O)(=O)C(F)(F)F)C(=O)CCCn1cc(COCCOCCOCCNc2cccc3c2C(=O)N([C@@H]2CCC(=O)NC2=O)C3=O)nn1,inactive,769,67
CC1(C)CCC(c2ccc(Cl)cc2)=C(CN2CCN(c3ccc(C(=O)NS(=O)(=O)c4ccc(N[C@H](CCN5CCN(CCCNc6cccc7c6C(=O)N([C@@H]6CCC(=O)NC6=O)C7=O)CC5)CSc5ccccc5)c(S(=O)(=O)C(F)(F)F)c4)cc3)CC2)C1 (mixture of isomers),inactive,,30
CN(CCCCNc1cccc2c1C(=O)N([C@@H]1CCC(=O)NC1=O)C2=O)CC[C@H](CSc1ccccc1)Nc1ccc(S(=O)(=O)NC(=O)c2ccc(N3CCN(CC4=C(c5ccc(Cl)cc5)CCC(C)(C)C4)CC3)cc2)cc1S(=O)(=O)C(F)(F)F,inactive,38.7,40
CC1(C)CCC(c2ccc(Cl)cc2)=C(CN2CCN(c3ccc(C(=O)NS(=O)(=O)c4ccc(N[C@H](CCN5CCN(C(=O)NCCOCCOCCNc6cccc7c6C(=O)N([C@@H]6CCC(=O)NC6=O)C7=O)CC5)CSc5ccccc5)c(S(=O)(=O)C(F)(F)F)c4)cc3)CC2)C1,inactive,118,27
CN(CCCCCCNc1cccc2c1C(=O)N([C@@H]1CCC(=O)NC1=O)C2=O)CC[C@H](CSc1ccccc1)Nc1ccc(S(=O)(=O)NC(=O)c2ccc(N3CCN(CC4=C(c5ccc(Cl)cc5)CCC(C)(C)C4)CC3)cc2)cc1S(=O)(=O)C(F)(F)F,inactive,147,73
CC1(C)CCC(c2ccc(Cl)cc2)=C(CN2CCN(c3ccc(C(=O)NS(=O)(=O)c4ccc(N[C@H](CCN5CCN(CCOCCNc6cccc7c6C(=O)N([C@@H]6CCC(=O)NC6=O)C7=O)CC5)CSc5ccccc5)c(S(=O)(=O)C(F)(F)F)c4)cc3)CC2)C1,inactive,60.5,20
